For 23 molecules, EC50 results are on record in patent publication US9278922B2 (ABBVIE INC., priority 2009, dated 2016).

One may read the EC50 as the concentration needed to bring the measured effect to its halfway point.

Structures are written as SMILES.

This test concerns HCV 1b-Con-1 replicon. The test can be described thus: HCV 1b-Con-1 replicon assay (luciferase reporter gene, HuH-7 cells). It is filed as cell-based, Hepatitis C virus (HCV) genotype 1b-Con1. The settings on record: Hepatitis C virus, Huh-7, luciferase reporter gene activity in the replicon, in the presence of 5% FBS. (In antiviral work, replicon cells carry a viral genome segment that copies itself.)
`CC[C@H](NC(=O)OC)C(=O)N1CCC[C@H]1C(=O)Nc1ccc(CN(Cc2ccc(NC(=O)[C@@H]3CCCN3C(=O)[C@H](CC)NC(=O)OC)cc2)c2ccccc2)cc1` [Example 38, dimethyl [(phenylimino)bis{methanediylbenzene-4,1-diylcarbamoyl(2S)pyrrolidine-2,1-diyl[(2S)-1-oxobutane-1,2-diyl]}]biscarbamate]: the EC50 was 1 to 10 nM. Turning to `COC(=O)N[C@H](C(=O)N1CCC[C@H]1C(=O)Nc1ccc(CN(Cc2ccc3[nH]c([C@@H]4CCCN4C(=O)[C@@H](NC(=O)OC)C(C)(C)O)nc3c2)c2ccc(F)cc2)cc1)C(C)(C)O` [Example 99, 3-hydroxy-N-(methoxycarbonyl)-L-valyl-N-[4-({(4-fluorophenyl)[(2-{(2S)-1-[3-hydroxy-N-(methoxycarbonyl)-L-valyl]pyrrolidin-2-yl}-1H-benzimidazol-5-yl)methyl]amino}methyl)phenyl]-L-prolinamide], the EC50 is less than 1 nM.

`CCN(C(C)C)[C@@H](C(=O)N1CCC[C@H]1C(=O)Nc1ccc(CN(Cc2ccc(NC(=O)[C@@H]3CCCN3C(=O)[C@@H](c3ccccc3)N(CC)C(C)C)cc2)c2ccc(F)cc2)cc1)c1ccccc1` [Example 132, (2S,2′S)-N,N′-{[(4-fluorophenyl)imino]bis(methanediylbenzene-4,1-diyl)}bis(1-{(2R)-2-[ethyl(1-methylethyl)amino]-2-phenylacetyl}pyrrolidine-2-carboxamide)]: the EC50 was less than 1 nM. In the case of `COC(=O)N[C@H](C(=O)N1CCC[C@H]1C(=O)Nc1ccc(CN(Cc2ccc(NC(=O)[C@@H]3CCCN3C(=O)[C@@H](c3ccccc3)N3CCOCC3)cc2)c2ccccc2)cc1)C(C)(C)C` [Example 58, N-(methoxycarbonyl)-3-methyl-L-valyl-N-[4-({[4-({1-[(2R)-2-morpholin-4-yl-2-phenylacetyl]-L-prolyl}amino)benzyl](phenyl)amino}methyl)phenyl]-L-prolinamide], the EC50 was less than 1 nM. Under `CC(C)(C)[C@H](Nc1ncccn1)C(=O)N1CCC[C@H]1C(=O)Nc1ccc(CN(Cc2ccc(NC(=O)[C@@H]3CCCN3C(=O)[C@@H](Nc3ncccn3)C(C)(C)C)cc2)c2ccccc2)cc1` [Example 111, (2S,2′S)-N,N′-[(phenylimino)bis(methanediylbenzene-4,1-diyl)]bis{1-[(2S)-3,3-dimethyl-2-(pyrimidin-2-ylamino)butanoyl]pyrrolidine-2-carboxamide}] stands 1 to 10 nM. Turning to `CC(C)[C@@H](C(=O)N1CCC[C@H]1C(=O)Nc1ccc(CN(Cc2ccc(NC(=O)[C@@H]3CCCN3C(=O)[C@H](C(C)C)N3CCCNC3=O)cc2)c2ccccc2)cc1)N1CCCNC1=O` [Example 36, (2S,2′S)-N,N′-[(phenylimino)bis(methanediylbenzene-4,1-diyl)]bis {1-[(2S)-3-methyl-2-(2-oxotetrahydropyrimidin-1(2H)-yl)butanoyl]pyrrolidine-2-carboxamide}], the EC50 fell in the range of 1 to 10 nM. On to `COC(=O)N[C@H](C(=O)N1C[C@@H](F)C[C@H]1C(=O)Nc1ccc(CN(Cc2ccc(NC(=O)[C@@H]3C[C@H](F)CN3C(=O)[C@@H](NC(=O)OC)C(C)(C)C)cc2)c2ccccc2)cc1)C(C)(C)C` [Example 94], for which the EC50 was 1 to 10 nM. Regarding `COC(=O)N[C@H](C(=O)N1CCC[C@H]1C(=O)Nc1ccc(CN(Cc2ccc(NC(=O)[C@@H]3CCCN3C(=O)[C@@H](NC(=O)OC)C(C)(C)C)cc2)c2nccs2)cc1)C(C)(C)C` [Example 19], the EC50 was in the range of 10 to 100 nM.

In the case of `COC(=O)N[C@H](C(=O)N1CCC[C@H]1C(=O)Nc1ccc(CN(Cc2ccc(NC(=O)[C@@H]3CCCN3C(=O)[C@H](N)c3ccccc3)cc2)c2ccccc2)cc1)C(C)(C)C` [Example 77, N-(methoxycarbonyl)-3-methyl-L-valyl-N-[4-({[4-({1-[(2R)-2-amino-2-phenylacetyl]-L-proly}amino)benzyl](phenyl)amino}methyl)phenyl]-L-prolinamide], the EC50 was less than 1 nM.

On to `COC(=O)N[C@H](C(=O)N1CCC[C@H]1c1nc2ccc(CN(Cc3ccc4nc([C@@H]5CCCN5C(=O)[C@@H](NC(=O)OC)C(C)(C)O)[nH]c4c3)c3ccccc3)cc2[nH]1)C(C)(C)O` [Example 34, methyl [(1S)-2-hydroxy-1-{[(2S)-2-(6-{[({2-[(2S)-1-{(2S)-3-hydroxy-2-[(methoxycarbonyl)amino]-3-methylbutanoyl}pyrrolidin-2-yl]-1H-benzimidazol-6-yl}methyl)(phenyl)amino]methyl}-1H-benzimidazol-2-yl)pyrrolidin-1-yl]carbonyl}-2-methylpropyl]carbamate], for which the EC50 is less than 1 nM. In the case of `COC(=O)N[C@@H](C(=O)N1CCC[C@H]1C(=O)Nc1ccc(CN(Cc2ccc(NC(=O)[C@@H]3CCCN3C(=O)[C@H](NC(=O)OC)c3ccccc3)cc2)c2ccccc2)cc1)c1ccccc1` [Example 3], the EC50 is less than 1 nM. `CCC[C@H](NC(=O)OC)C(=O)N1CCC[C@H]1C(=O)Nc1ccc(CN(Cc2ccc(NC(=O)[C@@H]3CCCN3C(=O)[C@H](CCC)NC(=O)OC)cc2)c2ccccc2)cc1` [Example 46, dimethyl [(phenylimino)bis{methanediylbenzene-4,1-diylcarbamoyl(2S)pyrrolidine-2,1-diyl[(2S)-1-oxopentane-1,2-diyl]}]biscarbamate]: the concentration for a half-maximal effect (EC50) lay within 1 to 10 nM. For the molecule `COC(=O)N[C@H](C(=O)N1CCC[C@H]1C(=O)Nc1ccc(CN(Cc2ccc(NC(=O)[C@@H]3CCCN3C(=O)[C@@H](NC(=O)OC)[C@H]3CCOC3)cc2)c2ccc(F)cc2)cc1)[C@H]1CCOC1` [Example 86, dimethyl {[(4-fluorophenyl)imino]bis[methanediylbenzene-4,1-diylcarbamoyl(2 S)pyrrolidine-2,1-diyl{(1S)-2-oxo-1-[(3R)-tetrahydrofuran-3-yl]ethane-2,1-diyl}]}biscarbamate], the EC50 is less than 1 nM. Under `COC(=O)N[C@H](C(=O)N1CCC[C@H]1C(=O)Nc1ccc(CN(Cc2ccc(NC(=O)[C@@H]3CCCN3C(=O)[C@@H](NC(=O)OC)C(C)C)cc2)c2ccc(F)cc2)cc1)C(C)C` [Example 14] stands less than 1 nM.

For `CCN(CC)[C@@H](C(=O)N1CCC[C@H]1C(=O)Nc1ccc(CN(Cc2ccc(NC(=O)[C@@H]3CCCN3C(=O)[C@@H](NC(=O)OC)C(C)(C)C)cc2)c2ccccc2)cc1)c1ccccc1` [Example 12, Methyl (S)-1-((S)-2-(4-(((4-((S)-1-((R)-2-(diethylamino)-2-phenylacetyl)pyrrolidine-2-carboxamido)benzyl)(phenyl)amino)methyl)phenylcarbamoyl)pyrrolidin-1-yl)-3,3-dimethyl-1-oxobutan-2-ylcarbamate], the EC50 is less than 1 nM. As to `COC(=O)N[C@H](C(=O)N1C[C@H](F)C[C@H]1C(=O)Nc1ccc(CN(Cc2ccc(NC(=O)[C@@H]3C[C@@H](F)CN3C(=O)[C@@H](NC(=O)OC)C(C)(C)C)cc2)c2ccc(F)cc2)cc1)C(C)(C)C` [Example 103], the 50% effective concentration (EC50) was less than 1 nM. The value for `O=C(Nc1ccc(CN(Cc2ccc(NC(=O)[C@@H]3CCCN3C(=O)[C@@H](c3ccccc3)N3CCCCC3)cc2)c2ccc(F)c(F)c2)cc1)[C@@H]1CCCN1C(=O)[C@@H](c1ccccc1)N1CCCCC1` [Example 137, (2S,2′S)-N,N′-{[(3,4-difluorophenyl)imino]bis(methanediylbenzene-4,1-diyl)}bis{1-[(2R)-2-phenyl-2-piperidin-1-ylacetyl]pyrrolidine-2-carboxamide}] was less than 1 nM; that for `COC(=O)N[C@H](C(=O)N1CC[C@H]1C(=O)Nc1ccc(CN(Cc2ccc(NC(=O)[C@@H]3CCN3C(=O)[C@@H](NC(=O)OC)C(C)(C)C)cc2)c2ccc(F)cc2)cc1)C(C)(C)C` [Example 100, methyl [(1S)-1-{[(2S)-2-{[4-({(4-fluorophenyl)[4-({[(2S)-1-{(2S)-2-[(methoxycarbonyl)amino]-3,3-dimethylbutanoyl}azetidin-2-yl]carbonyl}amino)benzyl]amino}methyl)phenyl]carbamoyl}azetidin-1-yl]carbonyl}-2,2-dimethylpropyl]carbamate] was 1 to 10 nM; that for `COC(=O)N[C@H](C(=O)N1CCC[C@H]1c1nc2cc(CN(Cc3ccc4[nH]c([C@@H]5CCCN5C(=O)[C@@H](NC(=O)OC)C(C)C)nc4c3)c3ccccc3)ccc2[nH]1)C(C)C` [Example 17, Dimethyl (2S,2′S)-1,1′-((2S,2′S)-2,2′-(5,5′-(phenylazanediyl)bis(methylene)bis(1H-benzo[d]imidazole-5,2-diyl))bis(pyrrolidine-2,1-diyl))bis(3-methyl-1-oxobutane-2,1-diyl)dicarbamate] was less than 1 nM. The value for `O=C(Nc1ccc(CN(Cc2ccc(NC(=O)[C@@H]3C[C@H](O)CN3C(=O)[C@@H](c3ccccc3)N3CCCCC3)cc2)c2ccc(F)cc2)cc1)[C@@H]1C[C@H](O)CN1C(=O)[C@@H](c1ccccc1)N1CCCCC1` [Example 127, (2S,4S,2′S,4′S)-N,N′-{[(4-fluorophenyl)imino]bis(methanediylbenzene-4,1-diyl)}bis{4-hydroxy-1-[(2R)-2-phenyl-2-piperidin-1-ylacetyl]pyrrolidine-2-carboxamide}] was less than 1 nM. Take `COC(=O)N[C@H](C(=O)N1CCC[C@H]1C(=O)Nc1ccc(CN(Cc2ccc(NC(=O)[C@@H]3CCCN3C(=O)[C@@H](NC(=O)OC)C3CCCC3)cc2)c2ccc(F)cc2)cc1)C1CCCC1` [Example 133, dimethyl ([(4-fluorophenyl)imino]bis{methanediylbenzene-4,1-diylcarbamoyl(2S)pyrrolidine-2,1-diyl[(1S)-1-cyclopentyl-2-oxoethane-2,1-diyl]})biscarbamate]: the EC50 was less than 1 nM. The value for `O=C(Nc1ccc(CN(Cc2ccc(NC(=O)[C@@H]3CCCN3C(=O)OCc3ccccc3)cc2)c2ccccc2)cc1)C1CCCN1C(=O)OCc1ccccc1` (stereo partly drawn) [Example 4, (2S,2′S)-benzyl 2,2′-(4,4′-(phenylazanediyl)bis(methylene)bis(4,1-phenylene)bis(azanediyl))bis(oxomethylene)dipyrrolidine-1-carboxylate] was 10 to 100 nM. Under `CCN[C@@H](C(=O)N1CCC[C@H]1C(=O)Nc1ccc(CN(Cc2ccc(NC(=O)[C@@H]3CCCN3C(=O)[C@H](NCC)c3ccccc3)cc2)c2ccc(F)cc2)cc1)c1ccccc1` [Example 131, (2S,2′S)-N,N′-{[(4-fluorophenyl)imino]bis(methanediylbenzene-4,1-diyl)}bis{1-[(2R)-2-(ethylamino)-2-phenylacetyl]pyrrolidine-2-carboxamide}] stands less than 1 nM.
